Measurements from US20020137929A1, “1 - (3-heterocyclylphenyl) isothiourea, -isourea, -guanidine and -amidine herbicidal agents” (Intellectual Property Department, BASF Aktiengesellschaft, priority 1998, published 2002).

Experiments:
CYPSE (Flatsedge) [1] = assay: Postemergence weed control under flooded paddy conditions; assay type: in vivo, Cyperus serotinus; settings: postemergence weeds, rated 3 to 4 weeks after treatment
In short: (§1)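 Herbicidal effect is judged by eye on a 0–9 scale versus control, 3–4 weeks after dosing. Dosing is into flood water kept 1.5–3 cm over the soil, at about 0.0313–0.500 kg/ha in aqueous/acetone 50/50 v/v, on 3–5 cm weeds and 1.5–2.5-leaf rice seedlings.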

SETVI (Foxtail, Green) [2] = assay: Postemergence herbicidal evaluation; assay type: in vivo, Setaria viridis; settings: postemergence
In short: (§2)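 First, seedlings were raised for around two weeks. Next, test material in 50/50 acetone/water containing 0.5% TWEEN 20 was sprayed through a nozzle at 40 psi, equivalent to about 0.0156–0.500 kg/ha. Finally, after 4–5 weeks in the greenhouse, plants were rated 0–9.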

SETVI (Foxtail, Green) [3] = assay: Preemergence herbicidal evaluation; assay type: in vivo, Setaria viridis; settings: preemergence, rated 4-5 weeks after treatment, 0-9 scale
In short: (§3)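 Each species is sown separately in potting soil over roughly an inch of soil before any emergence. The soil surface then receives an aqueous acetone spray delivering about 0.0156 to 0.500 kg/ha of compound. After four to five weeks, injury is scored from 0 to 9 relative to a control.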

[4] = tested on: TRZAWR (Wheat, Winter, cv Riband); assay: Preemergence herbicidal evaluation; assay type: in vivo, Triticum aestivum; settings: preemergence, rated 4-5 weeks after treatment, 0-9 scale
In short: as §3

[5] = tested on: ECHORC (Watergrass (Calif.)); assay: Preemergence weed control under flooded paddy conditions; assay type: in vivo, Echinochloa oryzoides; settings: rated 3-4 weeks after treatment
In short: (§4)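 Ratings on a 0-9 visual scale cover stand, vigor, malformation, size, chlorosis and overall appearance relative to a control, taken three to four weeks post-treatment. Application was into flood water over freshly sown silt loam at roughly 0.0313 to 0.500 kg/ha.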

CYPSE (Flatsedge) [6] = assay: as above; assay type: in vivo, Cyperus serotinus; settings: rated 3-4 weeks after treatment
In short: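 Flooded-pot preemergence screen with silt loam and seeds in the upper 0.5 cm. Dose about 0.0313 to 0.500 kg/ha, delivered into flood water; visual 0-9 score after 3 to 4 weeks.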

ZEAMX (Corn, Field) [7] = assay: Postemergence herbicidal evaluation; assay type: in vivo, Zea mays; settings: postemergence
In short: as §2

[8] = tested on: ECHORC (Watergrass (Calif.)); assay: Postemergence weed control under flooded paddy conditions; assay type: in vivo, Echinochloa oryzoides; settings: postemergence weeds, rated 3 to 4 weeks after treatment
In short: as §1

ZEAMX (Corn, Field) [9] = assay: Preemergence herbicidal evaluation; assay type: in vivo, Zea mays; settings: preemergence, rated 4-5 weeks after treatment, 0-9 scale
In short: as §3

CYPIR (Rice Flatsedge) [10] = assay: Preemergence weed control under flooded paddy conditions; assay type: in vivo, Cyperus iria; settings: rated 3-4 weeks after treatment
In short: as §4

ECHCG (Barnyardgrass) = assay: Preemergence herbicidal evaluation; assay type: in vivo, Echinochloa crus-galli; settings: preemergence, rated 4-5 weeks after treatment, 0-9 scale
In short: as §3

CYPIR (Rice Flatsedge) [11] = assay: Postemergence weed control under flooded paddy conditions; assay type: in vivo, Cyperus iria; settings: postemergence weeds, rated 3 to 4 weeks after treatment
In short: as §1

ORYSAT (Rice, Tebonnet) = assay: Postemergence herbicidal evaluation; assay type: in vivo, Oryza sativa, (L.) Tebonnet; settings: postemergence
In short: as §2

[12] = tested on: SAGPY (Arrowhead (Pygmaea)); assay: Postemergence weed control under flooded paddy conditions; assay type: in vivo, Sagittaria pygmaea; settings: postemergence weeds, rated 3 to 4 weeks after treatment
In short: as §1

## COC(=O)C1(N2C(=O)CSC2=Nc2cc(-n3c(=O)cc(C(F)(F)F)n(C)c3=O)c(F)cc2Cl)CCCCC1 [Compound 81, Methyl 1-{2-{{2-chloro-5-[3,6-dihydro-3-methyl-2,6-dioxo-4-(trifluoromethyl)-1(2H)-pyrimidinyl]-4-fluorophenyl}imino}-4-oxo-3-thiazolidinyl}-cyclohexanecarboxylate]
CYPSE (Flatsedge) [1]; Rate 0.0625 kg/ha
  Herbicidal rating CYPSE: 0.0
CYPSE (Flatsedge) [1]; Rate 0.1250 kg/ha
  Herbicidal rating CYPSE: 0.0
CYPSE (Flatsedge) [1]; Rate 0.2500 kg/ha
  Herbicidal rating CYPSE: 0.0
SETVI (Foxtail, Green) [2]; rate 0.0158 kg/ha
  SETVI herbicidal rating: 1.0
SETVI (Foxtail, Green) [2]; rate 0.0315 kg/ha
  SETVI herbicidal rating: 1.0
SETVI (Foxtail, Green) [2]; rate 0.0630 kg/ha
  SETVI herbicidal rating: 9.0
SETVI (Foxtail, Green) [3]; 0.0313 kg/ha
  SETVI rating: 0.0
SETVI (Foxtail, Green) [3]; 0.0625 kg/ha
  SETVI rating: 1.0
SETVI (Foxtail, Green) [3]; 0.1250 kg/ha
  SETVI rating: 0.0
SETVI (Foxtail, Green) [3]; 0.2500 kg/ha
  SETVI rating: 3.0
[4]; 0.0313 kg/ha
  TRZAWR rating: 0.0
[4]; 0.0625 kg/ha
  TRZAWR rating: 0.0
[4]; 0.1250 kg/ha
  TRZAWR rating: 1.0
[4]; 0.2500 kg/ha
  TRZAWR rating: 1.0
[5]; 0.0625 kg/ha
  ECHORC herbicidal effect rating: 0.0
[5]; 0.1250 kg/ha
  ECHORC herbicidal effect rating: 3.0
[5]; 0.2500 kg/ha
  ECHORC herbicidal effect rating: 3.0
CYPSE (Flatsedge) [6]; 0.0625 kg/ha
  CYPSE herbicidal effect rating: 0.0
CYPSE (Flatsedge) [6]; 0.1250 kg/ha
  CYPSE herbicidal effect rating: 0.0
CYPSE (Flatsedge) [6]; 0.2500 kg/ha
  CYPSE herbicidal effect rating: 0.0
ZEAMX (Corn, Field) [7]; rate 0.0158 kg/ha
  ZEAMX herbicidal rating: 6.5
ZEAMX (Corn, Field) [7]; rate 0.0315 kg/ha
  ZEAMX herbicidal rating: 7.0
ZEAMX (Corn, Field) [7]; rate 0.0630 kg/ha
  ZEAMX herbicidal rating: 7.0
[8]; Rate 0.0625 kg/ha
  Herbicidal rating ECHORC: 0.0
[8]; Rate 0.1250 kg/ha
  Herbicidal rating ECHORC: 3.0
[8]; Rate 0.2500 kg/ha
  Herbicidal rating ECHORC: 3.0
ZEAMX (Corn, Field) [9]; 0.0313 kg/ha
  ZEAMX rating: 0.0
ZEAMX (Corn, Field) [9]; 0.0625 kg/ha
  ZEAMX rating: 2.0
ZEAMX (Corn, Field) [9]; 0.1250 kg/ha
  ZEAMX rating: 2.0
ZEAMX (Corn, Field) [9]; 0.2500 kg/ha
  ZEAMX rating: 2.0
CYPIR (Rice Flatsedge) [10]; 0.0625 kg/ha
  CYPIR herbicidal effect rating: 4.0
CYPIR (Rice Flatsedge) [10]; 0.1250 kg/ha
  CYPIR herbicidal effect rating: 5.0
CYPIR (Rice Flatsedge) [10]; 0.2500 kg/ha
  CYPIR herbicidal effect rating: 5.0
ECHCG (Barnyardgrass); 0.0313 kg/ha
  ECHCG rating: 0.0
ECHCG (Barnyardgrass); 0.0625 kg/ha
  ECHCG rating: 0.0
ECHCG (Barnyardgrass); 0.1250 kg/ha
  ECHCG rating: 0.0
ECHCG (Barnyardgrass); 0.2500 kg/ha
  ECHCG rating: 1.0
CYPIR (Rice Flatsedge) [11]; Rate 0.0625 kg/ha
  Herbicidal rating CYPIR: 4.0
CYPIR (Rice Flatsedge) [11]; Rate 0.1250 kg/ha
  Herbicidal rating CYPIR: 5.0
CYPIR (Rice Flatsedge) [11]; Rate 0.2500 kg/ha
  Herbicidal rating CYPIR: 5.0
ORYSAT (Rice, Tebonnet); rate 0.0158 kg/ha
  ORYSAT herbicidal rating: 4.5
ORYSAT (Rice, Tebonnet); rate 0.0315 kg/ha
  ORYSAT herbicidal rating: 4.5
ORYSAT (Rice, Tebonnet); rate 0.0630 kg/ha
  ORYSAT herbicidal rating: 5.5
[12]; Rate 0.0625 kg/ha
  Herbicidal rating SAGPY: 0.0
[12]; Rate 0.1250 kg/ha
  Herbicidal rating SAGPY: 0.0
[12]; Rate 0.2500 kg/ha
  Herbicidal rating SAGPY: 0.0

## CCOC(=O)CN1C(=O)C(CC(=O)OCCF)SC1=Nc1cc(-n2c(=O)cc(C(F)(F)F)n(C)c2=O)c(F)cc1Cl (stereo not shown) [Compound 82, 2-{{2-Chloro-5-[3,6-dihydro-3-methyl-2,6-dioxo-4-(trifluoromethyl)-1(2H)-pyrimidinyl]-4-fluoro-phenyl}imino}-4-oxo-3,5-thiazolidinediacetic acid, 3-ethyl 2-fluoroethyl ester]
CYPSE (Flatsedge) [1]; Rate 0.0313 kg/ha
  Herbicidal rating CYPSE: 0.0
CYPSE (Flatsedge) [1]; Rate 0.0625 kg/ha
  Herbicidal rating CYPSE: 0.0
CYPSE (Flatsedge) [1]; Rate 0.1250 kg/ha
  Herbicidal rating CYPSE: 2.0
CYPSE (Flatsedge) [1]; Rate 0.2500 kg/ha
  Herbicidal rating CYPSE: 4.0
SETVI (Foxtail, Green) [2]; rate 0.0158 kg/ha
  SETVI herbicidal rating: 9.0
SETVI (Foxtail, Green) [2]; rate 0.0315 kg/ha
  SETVI herbicidal rating: 9.0
SETVI (Foxtail, Green) [2]; rate 0.0630 kg/ha
  SETVI herbicidal rating: 9.0
SETVI (Foxtail, Green) [3]; 0.0156 kg/ha
  SETVI rating: 0.0
SETVI (Foxtail, Green) [3]; 0.0313 kg/ha
  SETVI rating: 0.0
SETVI (Foxtail, Green) [3]; 0.0625 kg/ha
  SETVI rating: 7.0
SETVI (Foxtail, Green) [3]; 0.1250 kg/ha
  SETVI rating: 9.0
SETVI (Foxtail, Green) [3]; 0.2500 kg/ha
  SETVI rating: 9.0
[4]; 0.0156 kg/ha
  TRZAWR rating: 0.0
[4]; 0.0313 kg/ha
  TRZAWR rating: 0.0
[4]; 0.0625 kg/ha
  TRZAWR rating: 0.0
[4]; 0.1250 kg/ha
  TRZAWR rating: 0.0
[4]; 0.2500 kg/ha
  TRZAWR rating: 0.0
[5]; 0.0313 kg/ha
  ECHORC herbicidal effect rating: 4.0
[5]; 0.0625 kg/ha
  ECHORC herbicidal effect rating: 4.0
[5]; 0.1250 kg/ha
  ECHORC herbicidal effect rating: 6.0
[5]; 0.2500 kg/ha
  ECHORC herbicidal effect rating: 9.0
CYPSE (Flatsedge) [6]; 0.0313 kg/ha
  CYPSE herbicidal effect rating: 0.0
CYPSE (Flatsedge) [6]; 0.0625 kg/ha
  CYPSE herbicidal effect rating: 0.0
CYPSE (Flatsedge) [6]; 0.1250 kg/ha
  CYPSE herbicidal effect rating: 2.0
CYPSE (Flatsedge) [6]; 0.2500 kg/ha
  CYPSE herbicidal effect rating: 4.0
ZEAMX (Corn, Field) [7]; rate 0.0158 kg/ha
  ZEAMX herbicidal rating: 8.5
ZEAMX (Corn, Field) [7]; rate 0.0315 kg/ha
  ZEAMX herbicidal rating: 8.5
ZEAMX (Corn, Field) [7]; rate 0.0630 kg/ha
  ZEAMX herbicidal rating: 9.0
[8]; Rate 0.0313 kg/ha
  Herbicidal rating ECHORC: 4.0
[8]; Rate 0.0625 kg/ha
  Herbicidal rating ECHORC: 4.0
[8]; Rate 0.1250 kg/ha
  Herbicidal rating ECHORC: 6.0
[8]; Rate 0.2500 kg/ha
  Herbicidal rating ECHORC: 9.0
ZEAMX (Corn, Field) [9]; 0.0156 kg/ha
  ZEAMX rating: 0.0
ZEAMX (Corn, Field) [9]; 0.0313 kg/ha
  ZEAMX rating: 0.0
ZEAMX (Corn, Field) [9]; 0.0625 kg/ha
  ZEAMX rating: 0.0
ZEAMX (Corn, Field) [9]; 0.1250 kg/ha
  ZEAMX rating: 0.0
ZEAMX (Corn, Field) [9]; 0.2500 kg/ha
  ZEAMX rating: 3.0
CYPIR (Rice Flatsedge) [10]; 0.0313 kg/ha
  CYPIR herbicidal effect rating: 0.0
CYPIR (Rice Flatsedge) [10]; 0.0625 kg/ha
  CYPIR herbicidal effect rating: 0.0
CYPIR (Rice Flatsedge) [10]; 0.1250 kg/ha
  CYPIR herbicidal effect rating: 3.0
CYPIR (Rice Flatsedge) [10]; 0.2500 kg/ha
  CYPIR herbicidal effect rating: 3.0
ECHCG (Barnyardgrass); 0.0156 kg/ha
  ECHCG rating: 0.0
ECHCG (Barnyardgrass); 0.0313 kg/ha
  ECHCG rating: 0.0
ECHCG (Barnyardgrass); 0.0625 kg/ha
  ECHCG rating: 0.0
ECHCG (Barnyardgrass); 0.1250 kg/ha
  ECHCG rating: 3.0
ECHCG (Barnyardgrass); 0.2500 kg/ha
  ECHCG rating: 7.0
CYPIR (Rice Flatsedge) [11]; Rate 0.0313 kg/ha
  Herbicidal rating CYPIR: 0.0
CYPIR (Rice Flatsedge) [11]; Rate 0.0625 kg/ha
  Herbicidal rating CYPIR: 0.0
CYPIR (Rice Flatsedge) [11]; Rate 0.1250 kg/ha
  Herbicidal rating CYPIR: 3.0
CYPIR (Rice Flatsedge) [11]; Rate 0.2500 kg/ha
  Herbicidal rating CYPIR: 3.0
ORYSAT (Rice, Tebonnet); rate 0.0158 kg/ha
  ORYSAT herbicidal rating: 3.0
ORYSAT (Rice, Tebonnet); rate 0.0315 kg/ha
  ORYSAT herbicidal rating: 3.0
ORYSAT (Rice, Tebonnet); rate 0.0630 kg/ha
  ORYSAT herbicidal rating: 8.5
[12]; Rate 0.0313 kg/ha
  Herbicidal rating SAGPY: 4.0
[12]; Rate 0.0625 kg/ha
  Herbicidal rating SAGPY: 4.0
[12]; Rate 0.1250 kg/ha
  Herbicidal rating SAGPY: 4.0
[12]; Rate 0.2500 kg/ha
  Herbicidal rating SAGPY: 7.0
